Data on 3 compounds can be found in US8163160B2, “Biosensor having improved hematocrit and oxygen biases” (Abbott Diabetes Care Inc., priority 2002, dated 2012).

The series in a line: Solubility tests in water. The class given is physicochemical. The procedure: Solubility tests in water were performed on the new redox mediators in comparison with the standard PQ mediators.

≈ marks a conversion by molar mass, not a printed value.

Turning to `O=C1C(=O)c2cccnc2-c2ncccc21` [PQ, 1,10-phenanthroline-5,6-dione, reference compound], the “Solubility in Water (percent)” value is reported as “mg/ml (0.2%)” and the solubility (usually the dissolved amount per volume that the medium holds) was found to be 2 mg/mL (≈ 9.52 mM).
On to `O=C1C(=O)c2cccnc2-c2ncccc21.O=C1C(=O)c2cccnc2-c2ncccc21.O=C1C(=O)c2cccnc2-c2ncccc21.[Ni+2].[O-][Cl+3]([O-])([O-])[O-].[O-][Cl+3]([O-])([O-])[O-]` [[Ni(PQ)3](ClO4)2], for which the “Solubility in Water” value was <0.5 mg/mL and the “Solubility in Water (percent)” value is recorded as “mg/ml (<0.05%)”.
For the compound `CC(=O)[O-].CC(=O)[O-].O=C1C(=O)c2cccnc2-c2ncccc21.O=C1C(=O)c2cccnc2-c2ncccc21.O=C1C(=O)c2cccnc2-c2ncccc21.[Ni+2]` [[Ni(PQ)3](O2CCH3)2], the “Solubility in Water” value was >500 mg/mL and the “Solubility in Water (percent)” value is listed as “mg/ml (>50%)”.
